Laboratory results reported in article PMC7719179, “Small molecule inhibition of Dynamin-dependent endocytosis targets multiple niche signals and impairs leukemia stem cells” (Nature Communications, 2020).
Several values for one entry are separate records, joined by “and”; a condition that tells them apart may be missing. Equal values may be shown once.

What was measured:
Lmo2^Tg primary T-ALL = assay: Survival (Kaplan-Meier) and leukemia growth delay in recipients of Lmo2^Tg primary T-ALL; format: in vivo, mouse; conditions: * = non-leukemic at endpoint
Procedure: Single-cell suspension of murine thymus cells were intravenously injected into sublethally irradiated (650 Rads) isogenic Ly5.1 (Cd45.1) mice. Fold expansion was calculated by dividing the absolute output number of donor-derived DN3a cells harvested at the experimental endpoint by the respective number of DN3a thymocytes injected in each recipient. Limiting dilution transplantations were performed as described, by injecting various doses (10^1 to 10^6) of thymocytes per recipient, and mice were scored positive when T-cell lineage reconstitution assessed 6 weeks after transplantation was >1%. Leukemia-propagating cell frequency was calculated by applying Poisson statistics using the ELDA: Extreme Limiting Dilution Analysis software (Walter and Eliza Hall Institute Bioinformatics, Parkville VIC, Australia)[96]. Limiting dilution transplantations were performed independently from any other transplantation assays, using thymocytes from three different Lmo2^Tg mice for each cohort. Kaplan–Meier survival and statistical analysis were performed using GraphPad Prism. 6.0 software (GraphPad Software Inc, San Diego CA, USA). […]
derived leukemic cells (%Cd45.2+) in the peripheral blood (PB) of recipients injected with Lmo2 Tg primary leukemias (T-ALL 582, n=5/cohort; T-ALL 273, n=7/cohort; T-ALL 249, n=5/cohort) treated with Dynole 34-2, VXL or combination therapy. […]

[1] = system: pSTAT5 and HES1 in ETP12 and ALL8 patient-derived cells; assay: pSTAT5 and HES1 in ETP12 and ALL8 cells harvested from treated recipients; format: in vivo, human
Procedure: Phosphoflow analysis was performed as previously described. Briefly, 2 × 10^6 cells stained for surface markers were subsequently resuspended into PBS 1× + 4% v/v paraformaldehyde and incubated for 10 min at 4 °C for fixation. Fixed cells were washed twice using PBS 1×, then resuspended in pre-chilled at −20 °C Perm Buffer III (BD Pharmingen) and incubated 30 min at 4 °C for permeabilization. Cells were washed twice using PBS 1× and incubated overnight at 4 °C in PBS 1× + 2% v/v fetal calf serum (FCS) with Cell Signalling purified antibodies (Genesearch Pty Ltd, Arundel QLD, Australia) against pSTAT5 (Tyr694; #9359), phospho-p38 MAPK (Thr180/Tyr182; #4511), phospho-p44/42 (Erk1/2; #9102), phospho-S6 (Ser235/236; #4856) and phospho-Akt (Ser473; #9271) or isotype control. For intracellular HES1 detection, cells stained for surface markers were subsequently fixed and permeabilized using the BD Cytofix/Cytoperm^TM Kit and incubated overnight at 4 °C in PBS 1× + 2% v/v FCS with a purified antibody against HES1 (D6PU; #11988, Cell Signalling) or isotype control. After staining with primary antibodies for phosphoflow or intracellular detection, cells were incubated in permeabilization buffer with donkey Alexa Fluor 488-conjugated anti-rabbit secondary antibody (A-21206, lot #1910751, Molecular Probes, Invitrogen) or goat Alexa Fluor 546-conjugated anti-rabbit secondary antibody (A-11035, lot #1904467, Molecular Probes, Invitrogen) for 1 h on ice, and washed twice in PBS 1×. Fluorescence-activated cell sorting (FACS) analysis was performed using LSRII and LSR Fortessa cytometers, following the gating strategies described in Supplementary Fig. 11. Cell sorting was performed with a FACSAria or BD Influx.
Patient-derived xenograft models were established as previously described[97],[98]. […] For transplantation assays, 10^6 splenocytes harvested from successfully engrafted primary human ETP-ALL or T-ALL xenografts were injected into nonobese diabetic/severe combined immunodeficient (NOD.Cg-Prkdc^scid, also termed NOD/SCID) or NOD/SCID/Il2rg^tm1wjl/SzJ (NSG) mice[99]. Moreover, 1.5 × 10^6 cells splenocytes harvested from successfully engrafted patient-derived AML xenografts were injected into nonobese diabetic/severe immunodeficient (NOD.Cg-Rag1^tm1MomIl2rg^tm1wjl/SzJ, also termed NRG) mice expressing human IL-3, human GM-CSF and human SCF from the SGM3 triple transgene (NRGS)[100]. Engraftment into recipients was monitored by FACS analysis of peripheral blood as previously described. […] The in vivo efficacy of Dynole 34-2 was assessed 24 h after the last injection by FACS analysis and immunohistochemistry as described in Supplementary Methods. […]

CCCCCCCCNC(=O)C(C#N)=Cc1cn(CCCN(C)C)c2ccccc12 [Dynole 34-2, 2-Cyano-N-octyl-3-(1-(3-dimethylaminopropyl)-1H-indol-3-yl)-acrylamide]
Time to leukemia (Lmo2^Tg primary T-ALL; recipients of primary T-ALL 249): 3.7 weeks and 3 weeks and 3.4 weeks
Time to leukemia (Lmo2^Tg primary T-ALL; recipients of primary T-ALL 582): 4.1 weeks and 5.6 weeks and 5.7 weeks and 6 weeks and 6.3 weeks
HES1 (MFI) in human CD45+ cells ([1]; PDX ALL8): 1836 MFI and 2160 MFI and 2094 MFI
pSTAT5 (MFI) in human CD45+ cells ([1]; PDX ALL8): 2379 MFI and 2645 MFI and 2581 MFI
HES1 (MFI) in human CD45+ cells ([1]; PDX ETP12): 8443 MFI and 7622 MFI and 8597 MFI and 6696 MFI and 10495 MFI and 10443 MFI
pSTAT5 (MFI) in human CD45+ cells ([1]; PDX ETP12): 4191 MFI and 3709 MFI and 3790 MFI
